# From US7605280B2, “Anthraquinone and its derivatives” (Biostatus Limited, priority 1998, dated 2009)
# Like-named read-outs stand apart in the source and are kept apart here.
# Assays:
# [1] = tested on: human B cell lymphoma cell line; assay: Dual laser flow cytometry of DRAQ5NO with Annexin V-FITC (Cytometer D); format: cell-based; conditions: 50 μM DRAQ5NO, 633 nm excitation, FL4-H
# Description: The system was a FACS Vantage cell sorter (Becton Dickinson Inc., Cowley, UK) incorporating a Coherent Enterprise II laser simultaneously emitting at multiline UV (350-360 nm range) and 488 nm wavelengths with the beams made non-colinear using dichroic separators. Beam-combining optics were used to align the UV beam with that emitted by a Spectra Physics 127-35 helium-neon laser (max 35 mW output) emitting at 633 nm with a temporal separation of about 25 μsec from that of the primary 488 nm beam. Forward light scatter, 90° light scatter and fluorescence emissions were collected for 1×10^4 cells using the forward light scatter parameter as the master signal from the primary 488 nm beam, while side scatter was collected through a 488/10 nm bandpass filter. The analysis optics were: i) primary beam-originating signals analysed at FL1 (FITC filter; barrier filter of 530/30 nm) after transmission at SP610 and SP560 dichroics, or at FL2 (barrier filters of 585/42 nm or 575/26 nm) after transmission at SP610 and reflection at SP560 dichroics, or at FL3 (barrier filter of LP715 nm) after reflection at a SP610 dichroic; ii) delayed beam-originating signals analysed at FL4 (barrier filter of LP695 nm) or at FL5 (barrier filter of DF424/44 nm) after transmission or reflection at a LP640 dichroic respectively. Forward and 90° light scatter, were analysed to exclude any cell debris. […]
# [2] = previously published spectra, normalised; cited from earlier work
# [3] = Spectral analysis: absorbance and fluorescence spectra; format: physicochemical; conditions: DNA binding buffer, emission 530 nm
# Protocol: Absorbance spectra were obtained using a Perkin-Elmer Lambda 16 UV spectrometer and a 10 μM solution of agent dissolved in dichloromethane and measured in a 1 cm path length quartz-silica cuvette. Fluorescence spectra for a 0.8 ml solution of 20 μM DRAQ5 in a 1 cm path length semi-micro quartz silica cuvette were determined by exciting at 647 nm wavelength or monitoring emission at 670 nm wavelength. Fluorescence measurements were made on a Perkin Elmer LS50 spectrofluorometer with slit widths set at 10 nm. The spectrofluorometer was equipped with a red-sensitive photomultiplier tube (PMT; type R928; Hamamatsu Photonics KK, Japan). Data were accumulated for four scans for each condition and exported into a spreadsheet program to correct values for the buffer control and to determine emission maxima. DNA-DRAQ5 fluorescence was measured by the addition of microlitre volumes of concentrated calf thymus DNA solutions to the cuvette with mixing. Both agent and DNA were prepared in DNA binding buffer (0.05 M sodium phosphate, pH 6.2, 0.05 M NaCl, 0.001 M EDTA; 3). The spectra shown were corrected for the buffer background and not for the spectral sensitivity of the PMT. Rhodamine 123 spectra were generated in DNA binding buffer using either 488/5 nm excitation or monitoring emission at 530/5 nm. […]
compound,measurement,setting,value
C[N+](C)([O-])CCNc1ccc(O)c2c1C(=O)c1c(O)ccc(NCC[N+](C)(C)[O-])c1C2=O [DRAQ5N],level of DRAQ5NO staining in stage 1 populations (intact viable cells),[1],low level
same,level of DRAQ5NO staining in stage 3 cells (late stage apoptotic/dead cells),[1],increased level
Texas Red,Exλmax,[2],596 nm
fluorescein isothiocyanate [FITC],Exλmax,[2],490 nm
rhodamine 123,Exλmax,[3],511 nm
